Assay results reported in patent US20110028566A1, “COMPOSITIONS AND PRODUCTS CONTAINING CYCLOALIPHATIC DIOL ANTIMICROBIAL AGENTS AND METHODS OF USING THE COMPOSITIONS AND PRODUCTS” (EASTMAN CHEMICAL COMPANY, priority 2009, published 2011).

Tests used:
[1] = system: Aspergillus niger; test: Test for adequate preservation in skin cream formulation (microorganism counts); type: cell-based; conditions: skin cream emulsion pH 6.75; concentration in label
Protocol: (§1) A test for adequate preservation was carried out in accordance with the European Pharmacopea (6.0) and United States Pharmacopea (5.1). The testing consisted of the inoculation of a skin cream formulation serving as an emulsion substrate. The skin cream formulation having a pH of 6.75 was as follows: […]
(§2) This skin cream was the emulsion substrate, which formed the base for all further experimentation.
(§3) For Examples 3.1 through 3.10, 390.0 g cream were weighed into a 600-ml beaker. The cream was stirred at room temperature while adding the ingredients specified in Table 51. Each sample was stirred for 2 hours, then placed in the refrigerator until inoculated.
(§4) For Examples 3.11 and 3.12, 179.4 g cream were weighed into a 400-ml beaker. The cream was stirred at room temperature while adding the specified ingredients.
(§5) The samples of Examples 3.1 through 3.10 were challenged with specific organisms (see Table 51) to produce a contamination of between 1.0×10^5 cfu/g and 1.0×10^6 cfu/g. The actual inoculation counts resulting from these challenges were immediately determined by diluting in sterile buffered water and (spread plate method) plating for enumeration.
(§6) Challenge organisms were prepared in Mueller-Hinton broth, allowed to grow for 72 hours at 35° C.+/−2° C., centrifuged at 2500 rpm for 5 minutes, and the supernatant broth was removed. The microbial pellet was then re-diluted with sterile buffered water to a turbidity that matched previous 1.0×10^8 cfu/g concentrations of that organism's specific growth curve.
(§7) The test emulsions were maintained within a specific temperature range optimal for the organisms; 35° C.+/2° C. for the bacteria and 22° C.+/−2° C. for the fungi, for the first three days. They were kept at ambient room temperature for the subsequent time periods.
(§8) Subculture samples of approximately 1 gram were taken for counts at 7, 14, and 30 days and incubated under optimal conditions and nutrition for no less than 5 days. Subcultures were diluted 1:2, 1:10, 1:100, . . . , 1:10,000 and plated using the spread plate method onto Plate Count Agar and onto SAB Dextrose Agar for the Candida and Aspergillus species; and incubated as follows: 35° C.+/−2° C. for the Plate Count Agar and 22° C.+/−2° C. for the SAB Dextrose plates of Candida albicans and Aspergillus niger. Negative results were not reported before 7 days incubation, and counts were performed after no less than 5 days incubation. Because of the high viscosity of the test emulsion, at least a 1:2 dilution was required to perform the spread plate subcultures. 0-30 counts represent a 1 to 2 dilution, numbers […] a 1:10 dilution; and the rest represent dilutions of 1:100, 1:1000, or 1:10,000. […]

[2] = system: Pseudomonas aeruginosa; test: as above; type: cell-based; conditions: skin cream emulsion pH 6.75; concentration in label
Protocol: as §1, §2, §3, §4, §5, §6, §7, §8

For `OCC1CCC(CO)CC1` (centres unmarked) [1,4-CHDM, 1,4-cyclohexanedimethanol], the “Antimicrobial activity against Aspergillus niger in skin cream (in words)” value [1] was “significant activity” and the “Antimicrobial activity against Pseudomonas aeruginosa in skin cream (in words)” value [2] was “significant activity”.
